Experimental data from patent US12595504B2, “Methods for screening compounds for bactericidal activity and for determining the sensitivity of bacterial samples” (priority 2020, dated 2026).
≈ marks a conversion by molar mass, not a printed value. Read-outs that look alike come from different tables or passages of the source.

How the values were obtained:
[1] = test system: Escherichia coli MG1655; assay: Antibiotic MIC determination (serial twofold dilutions, OD600 during 17 hours at 37° C.); assay type: cell-based; conditions: 37° C.; for MIC: Escherichia coli
Method: The Minimal Inhibitory Concentration (MIC) of the antibiotics was determined under the same culture conditions as the tests using the ATP assay kit. […] An exponentially growing culture (OD600=0.3) was added to each well (60 μl/well) of a sterile microtiter plate containing the test concentration of antibiotic (40 μl/well). The volume was completed to 120 μl with medium and OD600 nm measurements were performed using a microtiter plate reader (Infinite 200 PRO, TECAN) during 17 hours at 37° C.
In all the following experiments, the MIC values were measured for each antibiotic with parameters such as temperature, OD600 and equipment identical to those used for the bioluminescence assay.

[2] = test system: E. coli MG1655 reporter cells; assay type: cell-based, Escherichia coli; conditions: for Lag before ATP release (shortest, incompressible value): highest concentrations tested
Method: The classical luciferase was from Molecular Probes (ATP Determination Kit (A22066)). The thermostable luciferase was from “CheckLite AT100” (kikkoman). The Luciferin-luciferase reagents were prepared following manufacturer instructions. Bacteria from exponentially growing cultures (OD600=0.3) were added to each well (60 μl/well) of a black 96-microtiter plate (Greiner Bio-one, 655076) and 20 μl of the luciferin-luciferase reagent solution was added. The microtiter plate was incubated 5 min at 37° C. for reaction with the luciferase to eliminate traces of extracellular ATP. Then 40 μl of antibiotic solution (3 times concentrated) prepared in the culture medium were added. Bioluminescence of each well was monitored for 4 hours under shaking (218 rpm) and at 28 or 37° C., depending on the experiments (see legends of Figures). The reagent stability in presence or absence of antibiotics was checked in control experiments without bacteria but with 4 pmoles of ATP. Tests were also performed in 384-microtiter plates (Greiner Bio-one, 784076).
Aminoglycosides are bactericidal antibiotics causing translational miscoding with lethal consequences for the cell. Leakage of small molecules following an aminoglycoside shock was previously identified by different methods including radiolabelling. Therefore, the inventors investigated the response of live cells to aminoglycoside stress.

[3] = antibiotic at 12.5 μg/mL, LB, 37° C.
[4] = antibiotic at 25 μg/mL, LB, 37° C.
[5] = antibiotic at 50 μg/mL, LB, 37° C.
[6] = antibiotic at 100 μg/mL, LB, 37° C.
[7] = antibiotic at 200 μg/mL, LB, 37° C.
[8] = antibiotic at 400 μg/mL, LB, 37° C.
[9] = MG1655, read-out: MIC in MOPS glucose 0.4%, MOPS minimal medium glucose 0.4%
[10] = MG1655, LB medium, OD600 0.15 final, read-out: MIC in LB
[11] = MOPS minimal medium (glucose 0.4%), FIG. 11

| Structure (SMILES) | Lag time before ATP [2, 3] | Lag time before ATP [2, 4] | Lag time before ATP [2, 5] | Lag time before ATP [2, 6] | Lag time before ATP [2, 7] | MIC [1, 9] | MIC [1, 10] | Lag before ATP release (shortest, incompressible value) ([2]; LB, 37° C.) | Shape of ATP release trace ([2]; LB medium, 37° C., FIG. 8) | other results |
| --- | --- | --- | --- | --- | --- | --- | --- | --- | --- | --- |
| Cc1c(N)nc([C@H](CC(N)=O)NC[C@H](N)C(N)=O)nc1C(=O)N[C@H](C(=O)N[C@H](C)[C@@H](O)[C@H](C)C(=O)N[C@H](C(=O)NCCC1=N[C@@H](c2nc(C(=O)NCCCCN=C(N)N)cs2)CS1)[C@@H](C)O)[C@@H](O[C@@H]1O[C@@H](CO)[C@@H](O)[C@H](O)[C@@H]1O[C@H]1O[C@H](CO)[C@@H](O)[C@H](OC(N)=O)[C@@H]1O)c1cnc[nH]1 [Zeocin] | 112.2 min | 113.1 min | 97.5 min | 85.7 min | 68.6 min |  |  |  |  | MIC in LB ([1]; LB medium, OD600 0.15 final): 200 µg/mL (≈ 140 µM); MIC in MOPS glucose 0.4% ([1]; MOPS minimal medium glucose 0.4%): 200 µg/mL (≈ 140 µM); Lag time before ATP [2, 8]: 57.8 min; Lag time before ATP ([2]; antibiotic at 800 μg/mL, LB, 37° C.): 51.9 min |
| CC1COc2c(N3CCN(C)CC3)c(F)cc3c(=O)c(C(=O)O)cn1c23 (stereo not shown) [Ofloxacin] |  |  |  |  |  | 4 µg/mL (≈ 11.1 µM) | 4 µg/mL (≈ 11.1 µM) | 77 min |  | Lag time of ATP release in minimal medium compared to rich medium (factor of decrease) ([2]; MOPS minimal medium vs LB): 2; Lag time before ATP ([2]; antibiotic at 1 μg/mL, LB, 37° C.): 105 min; Lag time before ATP ([2]; antibiotic at 2 μg/mL, LB, 37° C.): 95 min; Lag time before ATP ([2]; antibiotic at 4 μg/mL, LB, 37° C.): 84 min; Lag time before ATP ([2]; antibiotic at 8 μg/mL, LB, 37° C.): 77 min |
| [H]/N=C(/N)N[C@H]1[C@H](O)[C@@H](O)[C@H](O[C@@H]2O[C@@H](C)[C@](O)(C=O)[C@H]2O[C@@H]2O[C@@H](CO)[C@H](O)[C@@H](O)[C@@H]2NC)[C@@H](N/C(N)=N\[H])[C@@H]1O [Streptomycin] | 39 min | 21 min | 16 min | 12 min | 10 min | 6.25 µg/mL (≈ 10.7 µM) | 50 µg/mL (≈ 86 µM) | ~10 min | bi-phasic |  |
| NC[C@H]1O[C@H](O[C@H]2[C@H](O)[C@@H](O[C@H]3O[C@H](CO)[C@@H](O)[C@H](N)[C@H]3O)[C@H](N)C[C@@H]2N)[C@H](O)[C@@H](O)[C@@H]1O [Kanamycin] | 25 min | 16 min | 11 min | 8 min |  | 3 µg/mL (≈ 6.19 µM) | 25 µg/mL (≈ 51.6 µM) | ~4.7 min |  | Lag time before ATP ([2]; antibiotic at 6.25 μg/mL, LB, 37° C.): 50 min |
| CC(C)(O/N=C(\C(=O)N[C@@H]1C(=O)N2C(C(=O)[O-])=C(C[n+]3ccccc3)CS[C@H]12)c1csc(N)n1)C(=O)O [Ceftazidime] |  | 40.3 min | 8.6 min | 8.3 min | 8.0 min | 100 µg/mL (≈ 183 µM) | 100 µg/mL (≈ 183 µM) |  |  | Lag time before ATP [2, 8]: 7.8 min |
| CN[C@@H]1[C@H](O)[C@H](NC)[C@H]2O[C@@]3(O)C(=O)C[C@@H](C)O[C@H]3O[C@@H]2[C@H]1O [Spectinomycin] |  |  |  |  |  | 100 µg/mL (≈ 301 µM) | 50 µg/mL (≈ 150 µM) |  |  | Amplitude of ATP release ([2]; bacteriostatic antibiotics, LB, FIG. 9): very weak amplitude |
| CN(C)[C@@H]1C(O)=C(C(N)=O)C(=O)[C@@]2(O)C(O)=C3C(=O)c4c(O)cccc4[C@@](C)(O)[C@H]3C[C@@H]12 [Tetracycline] |  |  |  |  |  | 12.5 µg/mL (≈ 28.1 µM) | 12.5 µg/mL (≈ 28.1 µM) |  |  | High dose at which ATP release was observed ([2]; LB, FIG. 9): 4 times the MIC |
| CN[C@@H]1[C@@H](O[C@H]2O[C@H](CO)[C@@H](N)[C@H](O)[C@H]2O)OC2C[C@@H](N)[C@@H](O[C@H]3[C@H](O)[C@@H](O)[C@H](N)C[C@@H]3N)OC2[C@@H]1O (stereo partly shown) [Apramycin] |  |  |  |  |  | 2.5 µg/mL (≈ 4.63 µM) | 20.2 µg/mL (≈ 37.4 µM) | ~10.9 min | bi-phasic | Shape of ATP release trace [2, 11]: monophasic; Lag time before ATP ([2]; antibiotic at 6.75 μg/mL, LB, 37° C.): 60.9 min; Lag time before ATP ([2]; antibiotic at 13.5 μg/mL, LB, 37° C.): 30.0 min; Lag time before ATP ([2]; antibiotic at 27 μg/mL, LB, 37° C.): 13.3 min; Lag time before ATP ([2]; antibiotic at 54 μg/mL, LB, 37° C.): 10.9 min |
| CC[C@H]1OC(=O)[C@H](C)[C@@H](O[C@H]2C[C@@](C)(OC)[C@@H](O)[C@H](C)O2)[C@H](C)[C@@H](O[C@@H]2O[C@H](C)C[C@H](N(C)C)[C@H]2O)[C@](C)(O)C[C@@H](C)CN(C)[C@H](C)[C@@H](O)[C@]1(C)O [Azithromycin] |  |  |  |  |  | 125 µg/mL (≈ 167 µM) | 175 µg/mL (≈ 234 µM) |  |  | High dose at which ATP release was observed ([2]; LB, FIG. 9): 2.5 times the MIC; ATP leakage ([2]; highest concentration (400 μg/mL), MOPS minimal medium (glucose 0.4%)): stimulated a ATP leakage |
| CC1=C(C(=O)O)N2C(=O)[C@@H](NC(=O)[C@H](N)c3ccccc3)[C@H]2SC1 [Cephalexin] |  |  |  |  |  | 17.4 µg/mL (≈ 50.1 µM) | 34.7 µg/mL (≈ 99.9 µM) | 3.6 min | multiphasic | Shape of ATP release trace [2, 11]: monophasic; Lag time before ATP ([2]; antibiotic at 8.8 μg/mL, LB, 37° C.): 34.3 min; Lag time before ATP ([2]; antibiotic at 17.5 μg/mL, LB, 37° C.): 9.45 min; Lag time before ATP ([2]; antibiotic at 35 μg/mL, LB, 37° C.): 5 min; Lag time before ATP ([2]; antibiotic at 70 μg/mL, LB, 37° C.): 3.6 min; Lag time before ATP ([2]; antibiotic at 140 μg/mL, LB, 37° C.): 3.6 min |
